From the supplement of paper PMC10307832

Experiments:
Assay in all cases: relative viability (nuclei count vs DMSO), 5 days (fraction); higher = more cells survive
Wnt-C59 + Dasatinib = compound: CC1=NC=CC(=C1)C2=CC=C(C=C2)CC(=O)NC3=CC=C(C=C3)C4=CN=CC=C4 [Wnt-C59] + Cc1nc(Nc2ncc(C(=O)Nc3c(C)cccc3Cl)s2)cc(N2CCN(CCO)CC2)n1 [Dasatinib] (partner 0.075 µM)
Summary of the method: (§1)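 Medians of duplicate plates are given as relative viability. That measure is the nuclei count in treated wells divided by the count in vehicle wells. Counts were taken on 4× images of lung cancer cell lines in 1536-well plates, 5 days after pin-tool dosing the day after seeding with one drug alone or a fixed anchor-drug dose plus five library-drug doses (not always all listed) in √10 steps.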

Wnt-C59 + Tozasertib = compound: CC1=NC=CC(=C1)C2=CC=C(C=C2)CC(=O)NC3=CC=C(C=C3)C4=CN=CC=C4 [Wnt-C59] + Cc1cc(Nc2cc(N3CCN(C)CC3)nc(Sc3ccc(NC(=O)C4CC4)cc3)n2)n[nH]1 [Tozasertib] (partner 0.1 µM)
Summary of the method: as §1

Lapatinib + Crizotinib = compound: CS(=O)(=O)CCNCc1ccc(-c2ccc3ncnc(Nc4ccc(OCc5cccc(F)c5)c(Cl)c4)c3c2)o1 [Lapatinib] + C[C@@H](Oc1cc(-c2cnn(C3CCNCC3)c2)cnc1N)c1c(Cl)ccc(F)c1Cl [Crizotinib] (partner 1 µM)
Summary of the method: as §1

Lapatinib + Vorinostat = compound: CS(=O)(=O)CCNCc1ccc(-c2ccc3ncnc(Nc4ccc(OCc5cccc(F)c5)c(Cl)c4)c3c2)o1 [Lapatinib] + O=C(CCCCCCC(=O)Nc1ccccc1)NO [Vorinostat] (partner 1 µM)
Summary of the method: as §1

Row | Cell Line | relative viability (Wnt-C59 + Dasatinib; first compound 0.001 µM) | relative viability (Wnt-C59 + Dasatinib; first compound 0.01 µM) | relative viability (Wnt-C59 + Dasatinib; first compound 0.03162 µM) | relative viability (Wnt-C59 + Dasatinib; first compound 0.1 µM) | relative viability (Wnt-C59 + Tozasertib; first compound 0.001 µM) | relative viability (Wnt-C59 + Tozasertib; first compound 0.01 µM) | relative viability (Wnt-C59 + Tozasertib; first compound 0.03162 µM) | relative viability (Wnt-C59 + Tozasertib; first compound 0.1 µM) | relative viability (Lapatinib + Crizotinib; first compound 0.02 µM) | relative viability (Lapatinib + Crizotinib; first compound 0.06325 µM) | relative viability (Lapatinib + Crizotinib; first compound 0.2 µM) | relative viability (Lapatinib + Crizotinib; first compound 0.6325 µM) | relative viability (Lapatinib + Crizotinib; first compound 2 µM) | relative viability (Lapatinib + Vorinostat; first compound 0.02 µM) | relative viability (Lapatinib + Vorinostat; first compound 0.06325 µM) | relative viability (Lapatinib + Vorinostat; first compound 0.2 µM) | relative viability (Lapatinib + Vorinostat; first compound 0.6325 µM) | relative viability (Lapatinib + Vorinostat; first compound 2 µM)
1 | NCI-H1975 | 0.412 | 0.31 | 0.349 | 0.447 | 0.789 | 0.705 | 0.776 | 0.744 | 0.949 | 0.837 | 1.05 | 0.85 | 0.736 | 0.71 | 0.676 | 0.732 | 0.716 | 0.662
2 | NCI-H1993 | 0.601 | – | 0.631 | 0.631 | 0.607 | – | 0.515 | 0.633 | 0.854 | – | 0.796 | 0.737 | 0.742 | 0.45 | – | 0.721 | 0.672 | 0.509
3 | NCI-H2009 | 0.31 | 0.331 | 0.311 | 0.311 | 0.805 | 0.798 | 0.72 | 0.726 | 1.09 | 1.05 | 1.05 | 1.03 | 0.959 | 0.733 | 0.74 | 0.894 | 0.693 | 0.679
4 | NCI-H2023 | 0.563 | 0.538 | 0.628 | 0.333 | 0.406 | 0.332 | 0.352 | 0.356 | 0.539 | 0.419 | 0.491 | 0.633 | 0.281 | – | 0.402 | 0.603 | 0.612 | 0.552
5 | NCI-H2085 | 0.282 | 0.236 | 0.269 | 0.249 | 0.807 | 0.795 | 0.831 | 0.824 | 0.824 | 0.996 | 0.759 | 0.807 | 0.616 | 0.666 | 0.716 | 0.795 | 0.741 | 0.587
6 | NCI-H2087 | 0.733 | 0.868 | 0.943 | 0.806 | 0.274 | 0.235 | 0.255 | 0.291 | 0.876 | 0.88 | 1.1 | 0.692 | 0.766 | 0.547 | 0.843 | 0.728 | 0.604 | 0.671
7 | NCI-H2126 | 0.658 | 0.592 | 0.647 | 0.61 | 0.882 | 0.876 | 0.874 | 0.82 | – | 0.879 | 1.02 | 1.04 | 0.865 | 0.251 | 0.405 | 0.717 | 0.801 | 0.614
8 | NCI-H2170 | 0.549 | 0.354 | 0.601 | 0.555 | 0.721 | 0.641 | 0.852 | 0.602 | 1.13 | 0.904 | 0.694 | 0.475 | 0.223 | 0.726 | 0.747 | 0.578 | 0.582 | 0.372
9 | NCI-H2228 | 0.503 | 0.429 | 0.615 | 0.524 | 0.31 | 0.322 | 0.264 | 0.23 | 0.603 | 0.342 | 0.462 | 0.379 | 0.297 | 0.774 | 0.7 | 0.907 | 0.517 | 0.48
10 | NCI-H2347 | 0.35 | 0.295 | 0.327 | 0.306 | 0.581 | 0.453 | 0.446 | 0.618 | 0.7 | 0.654 | 0.722 | 0.649 | 0.671 | 0.501 | 0.629 | 0.554 | 0.689 | 0.547
11 | NCI-H2405 | 0.207 | 0.232 | 0.221 | 0.233 | 0.729 | 0.672 | 0.778 | 0.699 | 0.628 | 0.753 | 0.884 | 0.824 | 0.767 | – | 0.833 | – | 0.997 | 0.91
12 | NCI-H3122 | 0.824 | 0.951 | 0.893 | 0.894 | 0.409 | 0.386 | 0.401 | 0.377 | 0.277 | 0.224 | 0.27 | 0.268 | 0.274 | 0.932 | 1.06 | 0.963 | 0.977 | 0.974
13 | PC-3 [JPC-3] | 1.01 | 1.05 | 1.13 | 1.07 | 0.935 | 0.922 | 0.984 | 0.911 | – | 0.965 | 1.09 | 0.998 | 0.656 | – | 0.804 | – | 0.637 | 0.495
14 | PC-14 | 0.309 | 0.257 | 0.242 | 0.241 | 0.663 | 0.658 | 0.569 | 0.619 | 0.815 | 0.9 | 0.946 | 0.898 | 0.826 | 0.652 | 0.55 | 0.76 | 0.732 | 0.0919
15 | RERF-LC-KJ | 0.866 | 0.847 | 1.04 | 0.79 | 0.48 | 0.561 | 0.515 | 0.481 | 0.803 | 0.802 | 0.86 | 0.876 | 0.726 | 0.543 | 0.632 | 0.673 | 0.647 | 0.601
16 | SK-LU-1 | 0.184 | 0.187 | 0.198 | 0.187 | 0.317 | 0.323 | 0.331 | 0.295 | – | 0.814 | 0.992 | 1.07 | 0.859 | 0.681 | 0.747 | 0.829 | 0.776 | 0.802
17 | SK-MES-1 | 0.393 | 0.264 | 0.39 | 0.337 | 0.94 | 0.913 | 0.944 | 0.824 | 0.95 | 0.974 | 1.08 | 0.806 | 0.731 | 0.967 | 0.98 | 1.15 | 1.18 | 0.369
18 | SW 1573 | 0.557 | 0.699 | 0.67 | 0.314 | 0.144 | 0.196 | 0.342 | 0.167 | 0.762 | 0.724 | 0.856 | 0.829 | 0.623 | – | 0.612 | 0.987 | 0.828 | 0.774
